Laboratory results taken from patent US20080227813A1, “Pharmaceutical compositions and methods for treating diseases associated with neurodegeneration” (priority 2006, published 2008).

Legend:
Beagle dogs [1] = test: 14-day repeated dose oral toxicity study in Beagle dogs; type: in vivo; conditions: dog, 210 mg/kg/day oral, 14 days
Experimental: The control animals were treated in the same way with placebo gelatin capsules.
The checks of mortality were done twice daily. The clinical observations were performed at least twice daily and the weighing of non-consumed food was done daily. The body weights of the animals were measured once a week. The hematological, clinical chemical and ECG investigations, urinalysis and the opthalmological examinations were performed prior to the treatment and at the end of the treatment period. Terminally gross necropsy and histopathological examinations were performed according to the study plan.

[2] = Relative animal toxicokinetic and human pharmacokinetic drug exposures; type: in vivo; conditions: maximum human drug exposure (100 mg tid) = 1.0
[3] = 28-day repeated dose oral toxicokinetic study in rats; conditions: for Tmax: rat, in vivo, po
Experimental: A 28-day repeated dose oral toxicokinetic study of Compound I was performed in rats involving dose groups of 375 mg/kg, 750 mg/kg and 1500 mg/kg/day (equal to 233 mg/kg, 465 mg/kg and 930 mg/kg free base) (n=5 animals/sex/group). Blood samples were taken after the first and after the last doses to determine the kinetic parameters.

CRL: NMRI BR mice = conditions: mouse, 5000 mg/kg
Experimental: On the basis of acute oral toxicity of test item Compound I in CRL: NMRI BR mice the dose level 5000 mg/kg (equal to 3101 mg/kg free base) was examined in the micronucleus test.

[4] = Double-blind multiple oral dose pharmacokinetics in male healthy volunteers
Experimental: The study was designed to compare the pharmacokinetic profile of Compound I from the following dose regimens: • A: Administration of 1 capsule containing 50 mg of Compound I or of 1 capsule of placebo, three times a day, total dose 150 mg. • B: Administration of 1 capsule containing 100 mg of Compound I or of 1 capsule of placebo, three times a day, total dose 300 mg.
The treatments were applied in parallel groups. […] The study was conducted according to the study protocol and in accordance with GCP.

CRL:NMRI BR mice = test: Acute oral toxicity in mice; type: in vivo; conditions: mouse
Experimental: All animal toxicology studies were performed at Toxicological Research Centre (Veszprém, Hungary) using protocols compliant with OECD guidelines and Principles of Good Laboratory Practice. Following is a summary of the studies conducted.
Acute oral toxicity studies were performed in rats (CRL(WI:)BR) and in mice (CRL: NMRI BR). A control and five dose groups were involved in the rat study at dose levels of 2000 mg/kg, 2600 mg/kg, 3400 mg/kg, 4400 mg/kg and 5700 mg/kg (equal to 1241 mg/kg, 1613 mg/kg, […], 2729 mg/kg and 3535 mg/kg free base, n=5 animals/sex/group).

[5] = rat, in vivo
Beagle dogs [6] = test: 28-day repeated dose oral toxicity study in dogs; type: in vivo, dog; conditions: for No observed adverse effect level (NOAEL): Beagle dogs male and female, 28-day oral
Experimental: The control animals were treated in the same manner with placebo gelatin capsules.
Pre-treatment: hematological, clinical chemistry and ECG investigations and opthalmoscopic examinations were performed.
During the treatment period: check of mortality and clinical observation were performed at least twice daily and weighing the non-consumed food was performed daily. The body weights of animals were measured once a week. At the end of the treatment, hematological laboratory and ECG investigations, opthalmoscopic examinations, gross necropsy, histopathological and histometrical examinations were performed.

rats = test: 180-day repeated dose oral toxicity study in rats
Experimental: A six-month repeated dose oral toxicity study of Compound I was performed in rats involving a control (physiologic saline, n=32/sex) and dose groups of 200 mg/kg/day, 400 mg/kg/day and 900 mg/kg/day (equal to 124 mg/kg, 248 mg/kg and 558 mg/kg free base, n=20/sex, 20/sex and 32/sex, respectively). The test item was dissolved in distilled water. Treatment was carried out by a stomach tube daily. The application volume was adjusted weekly according to the animal's body weight changes.
Clinical observations were made once daily. Body weight and food consumption were measured and evaluated weekly. Urine collection, blood sampling for hematological, clinical chemistry evaluation and gross necropsy were conducted at the end of the treatment period. Full histopathologic examination was performed on the preserved organs and tissues of the vehicle control and high dose groups. In addition, the liver, kidneys, testes, epididymis and organs showing macroscopic alterations were examined microscopically in the low and medium doses.
Compound I content (pre-dose concentration) was determined in serum on days 1, 49, 111 and 173. The serum samples were analyzed by liquid/liquid extraction, and ion-pair HPLC. Twelve animals per sex of the controls and high dose groups were kept alive for a 28-day post-treatment recovery period. They were processed in the same way as animals at the termination of treatment.

[7] = dog, 70-210 mg/kg/day oral, 28 days

For `[O-][n+]1cccc(/C(Cl)=N/OC[C@H](O)CN2CCCCC2)c1` [Compound I, N-[2-hydroxy-3-(1-piperidinyl)-propoxy]-pyridine-1-oxide-3-carboximidoyl chloride], the “ECG or ophthalmological alterations” value (Beagle dogs [1]) was “no direct treatment related ECG or opthalmological alterations”, the clinical signs (Beagle dogs [1]) was “decreased activity, tremor, ptosis, salivation, increased muscle tone, vomiting and thin feces” and the liver histopathology (Beagle dogs [1]) was “moderate degree proliferation of cells belonging to the mononuclear phagocyte system (MPS) of the liver”. The mortality (Beagle dogs [1]) was “no death occurred”, the “Fold-above minimum effective mouse exposure” value ([2]; AUC) was 12 and the “Fold-above minimum effective rat exposure” value ([2]; AUC) was 5.9. The “Fold-below dog drug exposure at NOAEL” value ([2]; AUC) was 17, the “Fold-below rat drug exposure at NOAEL” value ([2]; AUC) was 6.0 and the “Fold-above minimum effective mouse exposure” value ([2]; Cmax) was 2.8. The “Fold-above minimum effective rat exposure” value ([2]; Cmax) was 1.4, the “Fold-below dog drug exposure at NOAEL” value ([2]; Cmax) was 5 and the “Fold-below rat drug exposure at NOAEL” value ([2]; Cmax) was 28. It also gave a Cmax ([3]; male rats, 750 mg/kg/day oral, Day 28) of 20410 ng/mL, a Tmax ([3]; 375 mg/kg) of 1 h and a Tmax ([3]; 375 mg/kg/day) of 0.5 h. The Tmax ([3]; 750 mg/kg) was 2 h, the Tmax ([3]; 1500 mg/kg) was 2 h and the mutagenicity in vivo (CRL: NMRI BR mice) was “non-mutagenic”. The “number of micronucleated polychromatic erythrocytes (MPCEs)” value (CRL: NMRI BR mice; in vivo) was “did not induce a significant increase”, the “dose-adjusted AUC0-8 h ratio (2×50 mg dosing level/100 mg dosing level)” value ([4]; Day 1) was 0.95 and the “dose-adjusted Cmax ratio (2×50 mg dosing level/100 mg dosing level)” value ([4]; Day 1) was 0.94. For the same compound, the “dose-adjusted AUC0-8 h ratio (2×50 mg dosing level/100 mg dosing level)” value ([4]; Day 10) was 1.02, the “dose-adjusted Cmax ratio (2×50 mg dosing level/100 mg dosing level)” value ([4]; Day 10) was 0.88 and the “Racc accumulation ratio = AUC0-8 Day 10/AUC0-8 Day 1, GeoM” value ([4]; Treatment A, 50 mg tid) was 1.512. For the same compound, the “Racc accumulation ratio = AUC0-8 Day 10/AUC0-8 Day 1, MEAN” value ([4]; Treatment A, 50 mg tid) was 1.525, the “Racc accumulation ratio = AUC0-8 Day 10/AUC0-8 Day 1, MEAN” value ([4]; Treatment B, 100 mg tid) was 1.426 and the “Racc accumulation ratio = AUC0-8 Day 10/AUC0-8 Day 1, GeoM” value ([4]; continuation of Treatment B (100 mg tid) under a head printed as Treatment A) was 1.415. The “AUC0-inf, GeoM” value ([4]; human, in vivo, 50 mg) was 680 ng·h/mL, the “AUC0-inf, MEAN” value ([4]; human, in vivo, 50 mg) was 691 ng·h/mL and the “AUC0-tz, GeoM” value ([4]; human, in vivo, 50 mg) was 621 ng·h/mL. For the same compound, the “AUC0-tz, MEAN” value ([4]; human, in vivo, 50 mg) was 632 ng·h/mL, the “LinPK = AUC0-8 Day 10/AUC0-inf, GeoM” value ([4]; human, in vivo, 50 mg) was 1.148 and the “LinPK = AUC0-8 Day 10/AUC0-inf, MEAN” value ([4]; human, in vivo, 50 mg) was 1.166. For the same compound, the “AUC0-8, MEAN” value ([4]; human, in vivo, 100 mg) was 1101 ng·h/mL, the “AUC0-inf, GeoM” value ([4]; human, in vivo, 100 mg) was 1303 ng·h/mL and the “AUC0-inf, MEAN” value ([4]; human, in vivo, 100 mg) was 1344 ng·h/mL. The “AUC0-tz, GeoM” value ([4]; human, in vivo, 100 mg) was 1266 ng·h/mL, the “AUC0-tz, MEAN” value ([4]; human, in vivo, 100 mg) was 1307 ng·h/mL and the “AUCt, MEAN” value ([4]; human, in vivo, 100 mg) was 1540 ng·h/mL. For the same compound, the “LinPK = AUC0-8 Day 10/AUC0-inf, GeoM” value ([4]; human, in vivo, 100 mg) was 1.172, the “LinPK = AUC0-8 Day 10/AUC0-inf, MEAN” value ([4]; human, in vivo, 100 mg) was 1.187 and the “Oral LD50 value” (CRL:NMRI BR mice; female, by base) was >3101 - by base mg/kg. The “Oral LD50 value” (CRL:NMRI BR mice; female, by citrate) was >5000 - by citrate mg/kg, the “Oral LD50 value” (CRL:NMRI BR mice; male, by base) was >3101 - by base mg/kg and the “Oral LD50 value” (CRL:NMRI BR mice; male, by citrate) was >5000 - by citrate mg/kg. For the same compound, the clearance [5] was “higher than the hepatic clearance”, the “time of peak serum values” ([5]; po, 25.8 mg/kg) was 15 min and the “No observed adverse effect level (NOAEL)” value (Beagle dogs [6]; by base) was 43.4 mg/kg/day. The “No observed adverse effect level (NOAEL)” value (Beagle dogs [6]; by citrate) was 70 mg/kg/day, the “ECG and ophthalmologic alterations” value (Beagle dogs [6]; [7]) was “did not cause ECG and opthalmologic alterations” and the mortality (Beagle dogs [6]; [7]) was “No deaths occurred”. For the same compound, the mortality (rats; rat, 200, 400, 900 mg/kg/day oral, six months) was “No test item related mortality occurred”, the NOEL (rats; rat, both sexes, six-month oral) was 200 mg/kg/day and the accumulation in serum (rats; rat, in vivo, po) was “No accumulation”.
